Assay results reported in publication PMC4444576, “Prospective performance evaluation of selected common virtual screening tools. Case study: Cyclooxygenase (COX) 1 and 2” (European Journal of Medicinal Chemistry, 2015).
Where two headings read alike, the source gives them in different places.

Tests used:
COX [1] = conditions: cited from earlier work; for Activity: data from the literature
COX [2] = system: COX; design: method as in PMID 22053353; conditions: read-out: IC50, oxidation of endocannabinoids; cited from earlier work
mice and rats = system: mice and rats; design: method as in earlier work; conditions: ref 1 (Supporting Information), cited from earlier work
COX [3] = experiment: Biological testing for COX-inhibiting activity, overall outcome on both isoforms; type: biochemical; conditions: for COX isoform selectivity: COX-1 versus COX-2; for Activity: biological testing of this study
human recombinant COX-2 = target: T1, human recombinant COX-2 (Homo sapiens, UniProt P35354); experiment: COX-2 inhibition assay (PGE2 EIA); type: biochemical; conditions: triplicates; for IC50: average of at least two independent experiments, read-out: IC50 COX-2; for inhibition at 20 µM: read-out: % inhibition at 20µM, COX-2
T1 construct: purchased Sigma–Aldrich
T1 sequence (P35354 18-604): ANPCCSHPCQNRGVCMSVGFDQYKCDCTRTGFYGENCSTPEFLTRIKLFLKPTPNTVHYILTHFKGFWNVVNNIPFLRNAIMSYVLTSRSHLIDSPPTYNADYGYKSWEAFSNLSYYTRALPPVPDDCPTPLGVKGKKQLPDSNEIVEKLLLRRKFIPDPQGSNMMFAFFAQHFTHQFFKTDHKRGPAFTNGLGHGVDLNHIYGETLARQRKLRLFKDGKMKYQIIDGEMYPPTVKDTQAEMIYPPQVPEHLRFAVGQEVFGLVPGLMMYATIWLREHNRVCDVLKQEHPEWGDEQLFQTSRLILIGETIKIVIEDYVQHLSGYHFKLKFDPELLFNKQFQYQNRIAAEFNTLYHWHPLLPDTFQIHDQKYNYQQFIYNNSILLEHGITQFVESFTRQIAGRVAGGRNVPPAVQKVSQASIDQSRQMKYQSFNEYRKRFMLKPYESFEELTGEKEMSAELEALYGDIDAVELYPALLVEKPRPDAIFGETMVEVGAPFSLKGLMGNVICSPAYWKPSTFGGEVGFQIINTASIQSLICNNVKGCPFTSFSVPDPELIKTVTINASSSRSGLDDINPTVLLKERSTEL

[4] = target: T2, ram seminal vesicle COX-1 (Ovis aries, UniProt P05979); experiment: COX-1 inhibition assay (PGE2 EIA); type: biochemical; conditions: triplicates; for IC50: average of at least two independent experiments, read-out: IC50 COX-1; for inhibition at 20 µM: read-out: % inhibition at 20µM, COX-1
T2 construct: ram seminal vesicle COX-1 (1 U) (Sigma–Aldrich); purchased Sigma–Aldrich; host or cells: ram seminal vesicle (tissue of origin)
T2 sequence (P05979 25-600): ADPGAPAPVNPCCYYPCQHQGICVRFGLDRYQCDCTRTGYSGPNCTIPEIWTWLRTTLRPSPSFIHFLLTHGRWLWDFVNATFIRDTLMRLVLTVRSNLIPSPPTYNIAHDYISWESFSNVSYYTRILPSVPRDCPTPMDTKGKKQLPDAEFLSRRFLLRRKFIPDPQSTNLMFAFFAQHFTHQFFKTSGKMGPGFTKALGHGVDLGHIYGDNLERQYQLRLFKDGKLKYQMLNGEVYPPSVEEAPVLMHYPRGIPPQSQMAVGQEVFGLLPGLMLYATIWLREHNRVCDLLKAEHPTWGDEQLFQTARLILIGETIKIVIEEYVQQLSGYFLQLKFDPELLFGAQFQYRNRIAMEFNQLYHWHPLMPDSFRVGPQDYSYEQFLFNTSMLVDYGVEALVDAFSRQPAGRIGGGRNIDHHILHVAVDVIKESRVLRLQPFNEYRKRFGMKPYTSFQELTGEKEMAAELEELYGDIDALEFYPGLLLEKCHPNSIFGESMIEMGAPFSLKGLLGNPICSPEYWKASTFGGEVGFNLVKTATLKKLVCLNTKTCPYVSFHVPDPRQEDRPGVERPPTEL

U937 cells = system: U937 cells; design: method as in PMID 19958764; conditions: stimulated differentiated U937 cells; cited from earlier work

For `CC(C)Cc1ccc([C@@H](C)C(=O)O)cc1` [(R)-ibuprofen], the “PGE2 formation from AA” value (COX [1]) is given as “only inhibited at high concentrations”, the Activity (COX [1]) is given as “Active [60]” and the IC50 (COX [2]) is given as roughly 10 µM.
In the case of `CC(C)Cc1ccc([C@H](C)C(=O)O)cc1` [(S)-ibuprofen], the Activity (COX [1]) is given as “Active [61]”.
In the case of `C=CCOc1ccc(CC(=O)O)cc1Cl` [Alclofenac], the Activity (COX [1]) is listed as “Active [40]”.
In the case of `COc1ccc2cc3[n+](cc2c1OC)CCc1cc2c(cc1-3)OCO2` [Berberin], the Activity (COX [1]) is given as “Inactive [50]” and the Activity (COX [1]; listed as Berberine) is given as “not by direct inhibition of the enzyme”.
For `CCC(c1ccc(O)c(F)c1)C(C)c1ccc(O)c(F)c1` (stereo not shown) [Bifluranol (1), Bifluranol], the anti-prostatic effects (mice and rats; mice and rats, compared to DES) is listed as “comparable extent to diethylstilbestrol (DES)”, the “estrogenicity, lower compared to DES” value (mice and rats) is listed as “approximately 8 fold” and the spermatogenesis or fertility (mice and rats; unlike DES) is listed as “did not impair spermatogenesis or fertility”. For the same compound, the COX isoform selectivity (COX [3]) was “COX-1 selective”, the Activity (COX [3]) was “Active” and the IC50 (human recombinant COX-2) was greater than 20 µM. The IC50 [4] was 33 ± 7.3 µM.
In the case of `CC(C(=O)O)c1ccc2c(c1)[nH]c1ccc(Cl)cc12` (stereo not shown) [Carprofen], the Activity (COX [1]) is listed as “Active [51]”.
With `COc1cc(/C=C2\CCC/C(=C\c3ccc(O)c(OC)c3)C2=O)ccc1O` [Cyqualon (3), Cyqualon] the COX isoform selectivity (COX [3]) was “COX-1 selective”, the Activity (COX [3]) was “Active” and the IC50 (human recombinant COX-2) was greater than 20 µM. The IC50 [4] was 1.5 ± 2.1 µM and the PGE2-formation (U937 cells) was “did not prevent PGE2-formation”.
In the case of `O=C(O)CCC(=O)c1ccc(-c2ccccc2)cc1` [Fenbufen], the Activity (COX [1]) is listed as “Active [52]”.
In the case of `Cc1c(Nc2ncccc2C(=O)O)cccc1C(F)(F)F` [Flunixin meglumine], the Activity (COX [1]) is given as “Active [53]”.
For `COc1ccc2c(c1)c(CC(=O)O)c(C)n2C(=O)c1ccc(Cl)cc1` [Indometacin], the Activity (COX [1]) is given as “Active [54]”.
In the case of `CC(C(=O)O)c1ccc(N2Cc3ccccc3C2=O)cc1` (stereo not shown) [Indoprofen], the Activity (COX [1]) is given as “Active [55]”.
For `CC(C(=O)O)c1cccc(C(=O)c2ccccc2)c1` (stereo not shown) [Ketoprofen], the Activity (COX [1]) is given as “Active [56]”.
For `Cc1ccc(Cl)c(Nc2ccccc2C(=O)O)c1Cl` [Meclofenamic acid], the Activity (COX [1]) is listed as “Active [57]”.
In the case of `Cc1cccc(Nc2ccccc2C(=O)O)c1C` [Mefenamic acid], the Activity (COX [1]) is given as “Active [58]”.
For `CC(C(=O)O)c1ccc(N2CC=CC2)c(Cl)c1` (stereo not shown) [Pirprofen], the Activity (COX [1]) is listed as “Active [59]”.
In the case of `COC(=O)c1ccccc1C(=O)c1ccc(OCCN2CCCCC2)cc1` [Pitofenone], the Activity (COX [3]) is reported as “Inactive”, the inhibition at 20 µM (human recombinant COX-2) is reported as 14.1 ± 18.4% and the inhibition at 20 µM [4] is reported as -4.7 ± 16.2%.
In the case of `CNC(=C[N+](=O)[O-])NCCSCc1ccc(CN(C)C)o1` [Ranitidine], the Activity (COX [3]) is reported as “Inactive”, the inhibition at 20 µM (human recombinant COX-2) is reported as 12.7 ± 5.1% and the inhibition at 20 µM [4] is reported as -11 ± 9.6%.
With `CC(C)(Oc1ccc(Cl)cc1)C(=O)OCCCOC(=O)c1cccnc1` [Ronifibrate] the Activity (COX [3]) was “Inactive”, the “% inhibition at 20µM, COX-2” value (human recombinant COX-2) was 33.0 ± 5.7% and the “% inhibition at 20µM, COX-1” value [4] was 28.2 ± 11.6%.
In the case of `O=C(O)c1cc(/N=N/c2ccc(S(=O)(=O)Nc3ccccn3)cc2)ccc1O` [Sulfasalazin], the COX-inhibition (COX [1]; no IC50 available) is listed as “Evidence for COX-inhibition”.
For `O=S(O)CNc1ccc(S(=O)(=O)c2ccc(NCS(=O)O)cc2)cc1` [Sulfoxone], the Activity (COX [3]) was “Inactive”, the inhibition at 20 µM (human recombinant COX-2) was -0.7 ± 6.4% and the inhibition at 20 µM [4] was -2.1 ± 16.4%.
In the case of `NS(=O)(=O)c1ccc(N2CCCCS2(=O)=O)cc1` [Sulthiame], the Activity (COX [3]) is reported as “Inactive”, the inhibition at 20 µM (human recombinant COX-2) is reported as -0.9 ± 13.6% and the inhibition at 20 µM [4] is reported as 3.7 ± 9.3%.
With `Cc1ncc(C[n+]2csc(CCO)c2C)c(N)n1` [Thiamine monochloride] the Activity (COX [3]) was “Inactive”, the inhibition at 20 µM (human recombinant COX-2) was -3.2 ± 6.9% and the inhibition at 20 µM [4] was 13.8 ± 15.6%.
In the case of `CC(C(=O)O)c1ccc(C(=O)c2ccccc2)s1` (stereo not shown) [Tiaprofenic acid], the Activity (COX [1]) is given as “Active [55]”.
With `O=C(O)COc1ccc(C(=O)c2cccs2)c(Cl)c1Cl` [Ticrynafen] the Activity (COX [3]) was “Inactive”, the inhibition at 20 µM (human recombinant COX-2) was 18.4 ± 6.1% and the inhibition at 20 µM [4] was -6.2 ± 6.1%.
With `[Cl-].c1ccc(-c2nn(-c3ccccc3)[n+](-c3ccccc3)n2)cc1` [Triphenyltetrazol] the Activity (COX [3]) was “Inactive”, the “% inhibition at 20µM, COX-2” value (human recombinant COX-2) was 2.9 ± 7.3% and the “% inhibition at 20µM, COX-1” value [4] was 13.6 ± 14.4%.
In the case of `COc1ccc(C(Cl)=C(c2ccc(OC)cc2)c2ccc(OC)cc2)cc1` [chlorotrianisene], the COX inhibition (COX [1]; identified by SEA) is listed as “COX-inhibitor”.
For `CC(=O)Nc1ccc(-c2ccccc2)cc1` [p-phenylacetanilide], the Activity (COX [3]) was “Inactive”, the “% inhibition at 20µM, COX-2” value (human recombinant COX-2) was -1.6 ± 8.3% and the “% inhibition at 20µM, COX-1” value [4] was 5.8 ± 18.3%.
